Data taken from patent publication US4537962A, “Substituted 1,3,4-thiadiazolo[3,2-A]pyrimidines and compositions containing them” (Farmitalia Carlo Erba, S.p.A., priority 1982, dated 1985).

How the values were obtained:
[1] = approximate acute toxicity (LD50) in the mouse; conditions: in vivo, po, per os, single administration of increasing doses, measured on the seventh day after the day of treatment
Description: In view of their high therapeutic index, the compounds of the invention can be used safely in medicine, For example, the approximate acute toxicity (LD50) of the compounds 7-trans-(2-phenyl-ethenyl)-5H-1,3,4-thiadiazolo[3,2-a]pyrimidine-5-one, 2-methyl-7-trans-(2-phenyl-ethenyl)-5H-1,3,4-thiadiazolo[3,2-a]pyrimidine- 5-one, 7-trans-[2-(2,6-dichloro-phenyl)-ethenyl]-5H-1,3,4-thiadiazolo[3,2-a]pyrimidine-5-one, 7-trans-[2-(3-pyridyl)-ethenyl]-5H-1,3,4-thiadiazolo[3,2-a]pyrimidine-5-one, 7-trans-[2-(4-fluoro-phenyl)-ethenyl]-5H-1,3,4-thiadiazolo[3,2-a]pyrimidine-5-one, 2-phenyl-7-trans-[2-(3-pyridyl)-ethenyl]-5H-1,3,4-thiadiazolo[3,2-a]pyrimidine-5-one and 2-(4-methyl-phenyl)-7-trans-[2-(3-pyridyl)-ethenyl]-5H-1,3,4-thiadiazolo[3,2-a]pyrimidine-5-one in the mouse, determined by single administration of increasing doses and measured on the seventh day after the day of treatment, is higher than 800 mg/kg per os. Analogous toxicity data have been found for the other compounds of the invention.

restraint ulcers = assay: inhibition of restraint ulcers in rats (anti-ulcerogenic activity, method of Bonfils et al.); format: in vivo, Sprague-Dawley male rats; conditions: po; approximate ED50; rat, p.o. one hour before the immobilization; 4 hours immobilization; read-out: Antiulcerogenic activity p.o., ED50
Description: The compounds of the present invention are active on the gastroenteric system, in particular they are endowed with anti-ulcerogenic and gastric anti-secretory activity and are therefore useful in therapy, for example in the prevention and treatment of peptic, e.g. duodenal, gastric and exophageal ulcers and to inhibit gastric acid secretion. The compounds of the invention are also useful for reducing the undesirable gastrointestinal side-effects resulting from systemic administration of anti-inflammatory prostaglandin synthetase inhibitors and may be, therefore, used for this purpose in association with them. The anti-ulcerogenic activity of the compounds of the invention is shown, e.g., by the fact that they are active in the test of the inhibition of restraint ulcers in rats, according to the method of Bonfils et al., (Therapie, 1960, 15, 1096; Jap. J. Pharmac. 1968, 18, 9).
Six Sprague-Dawley male rats (100-120 g) fasted 24 hours were used for the experiment: a square flexible small-mesh wire netting was used for the immobilization and 4 hours after the immobilization the rats were sacrificed, their stomachs were removed and the lesions counted under a dissecting microscope. The tested compounds were administered per os (p.o.) one hour before the immobilization.

gastric secretion = assay: gastric antisecretory activity in rats by the pylorus ligature technique (method of H. Shay et al.); format: in vivo, Sprague-Dawley male rats; conditions: 4 h; approximate ED50; rat, intraduodenal, four hours after pylorus ligature
Description: Gastric antisecretory activity was evaluated in rats by the pylorus ligature technique. Six Sprague-Dawley male rats (110-130 g) were used for each group. Twenty-four hours before the test, the rats were deprived of food but their water supply was maintained. On the day of the operation, the pylorus was ligated under light ether anaesthesia. Each compound was injected intraduodenally (i.d.) at the time of the ligature. Four hours after the ligature the rats were sacrificed, the stomach secretion was collected and centrifuged at 3500 r.p.m. for 10 minutes, and the volume, less sediment, was determined.
The amount of the free hydrochloric acid in the gastrc juice was determined by titration against 0.01N sodium hydroxide to pH 7.0 on the pH-meter.

Structure (SMILES): Cc1nn2c(=O)cc(/C=C/c3ccccc3)nc2s1 [2-methyl-7-trans-(2-phenyl-ethenyl)-5H-1,3,4-thiadiazolo[3,2-a]pyrimidine-5-one]
- LD50 at 168 h [1]: > 800 mg/kg

Structure (SMILES): O=c1cc(/C=C/c2cccnc2)nc2sc(-c3ccccc3)nn12 [2-phenyl-7-trans-[2-(3-pyridyl)-ethenyl]-5H-1,3,4-thiadiazolo[3,2-a]pyrimidine-5-one]
- ED50 (restraint ulcers): 3 mg/kg
- LD50 at 168 h [1]: > 800 mg/kg

Structure (SMILES): O=c1cc(/C=C/c2cccnc2)nc2scnn12 [7-trans-[2-(3-pyridyl)-ethenyl]-5H-1,3,4-thiadiazolo[3,2-a]pyrimidine-5-one]
- LD50 at 168 h [1]: > 800 mg/kg

Structure (SMILES): O=c1cc(/C=C/c2ccccc2)nc2scnn12 [7-trans-(2-phenyl-ethenyl)-5H-1,3,4-thiadiazolo[3,2-a]pyrimidine-5-one]
- LD50 at 168 h [1]: > 800 mg/kg

Structure (SMILES): O=c1cc(/C=C/c2c(Cl)cccc2Cl)nc2scnn12 [7-trans-[2-(2,6-dichloro-phenyl)-ethenyl]-5H-1,3,4-thiadiazolo[3,2-a]pyrimidine-5-one]
- LD50 at 168 h [1]: > 800 mg/kg

Structure (SMILES): O=c1cc(/C=C/c2ccc(F)cc2)nc2scnn12
- LD50 at 168 h [1]: > 800 mg/kg

Structure (SMILES): Cc1ccc(-c2nn3c(=O)cc(/C=C/c4cccnc4)nc3s2)cc1 [2-(4-methyl-phenyl)-7-trans-[2-(3-pyridyl)-ethenyl]-5H-1,3,4-thiadiazolo[3,2-a]pyrimidine-5-one]
- LD50 at 168 h [1]: > 800 mg/kg
- ED50 (gastric secretion): ~50 mg/kg
